Data: patent US5518988A, “Method of counteracting an ethylene response in plants” (North Carolina State University, priority 1994, dated 1996)

Assays:
[1] = tested on: carnations; assay: Protection of in vivo cut carnations against exogenous ethylene (pre-treatment with compound); design: species or system carnation (Dianthus caryophyllus)
Protocol: The treatment of carnations with ethylene hastens the process of senescence, producing a petal in-rolling phenomena (Halevy and Mayak, 1981). Carnations at stage II, with low ethylene production and no visible signs of senescence (Woodson, 1987) were treated with 1-methylcyclopropeneat different concentration for 6 hours before adding […] of ethylene for 1 hour.
1-Methylcyclopropene was added for various times before the application of exogenous ethylene. […] Treatment with about 250 to 300 nl/l of 1-methylcyclopropene for five minutes was enough to protect the flowers. Treated for 24 hours, with 0.5 nl/l protected against 1 ml/l of ethylene.
Flowers were treated with 5 nl/l of product during 6 hours, then, stored for 10 days at room temperature. One ml/l of ethylene was then added over 18 hours. Ethylene had no effect on the treated carnations 10 days after the 1-methylcyclopropene treatment (data not shown). The binding of 1-methylcyclopropene on carnations seems to be irreversible.
Cut carnations at stage I and stage III were treated with 1-methylcyclopropene. For young carnations, the concentration of 1-methylcyclopropene giving a protective effect was about 1.25 and 2.5 nl/l. For these, the protection against ethylene was total. For old carnations, rates between 2.5 and 5 nl/l of 1-methylcyclopropene were sufficient to give a response, but total protection was not achieved. Total protection of older carnations was only achieved with 10 nl/l of 1-methylcyclopropene (data not shown).

[2] = tested on: carnations; assay: Stopping the senescent process (petal in-rolling) of carnations due to exogenous and endogenous ethylene; type: in vivo, carnation (Dianthus caryophyllus)
Protocol: Flowers in a pre-senescent stage were treated with 5 nl/l of 1-methylcyclopropene and the senescent process was observed.
The carnations need to have an exogenous ethylene exposure at least for 6 hours to have a visible sign of senescence. Treatment with 3 nl/l of 1-methylcyclopropene is enough to stop that process. […] 1-methylcyclopropene seems to reduce and prevent the autocatalytic production of ethylene.
The ability of 1-methylcyclopropene to stop the senescence process was observed by adding ethylene over 6 hours. […] Thereafter 1-methylcyclopropene was added. The process of senescence was stopped by the binding of 1-methylcyclopropene on the ethylene receptor and giving a molecular response.

[3] = tested on: carnations; assay: Ethylene production of carnation flowers; type: in vivo, carnation (Dianthus caryophyllus); details: compound applied at the ethylene climacteric; thereafter ethylene production measured
Protocol: Ethylene production was followed from the beginning of the ethylene climacteric production. […] 1- Methylcyclopropene was applied. Thereafter ethylene production was measured.

[4] = tested on: ethylene receptor; assay: 14C-ethylene binding to carnation petals; design: species or system carnation (Dianthus caryophyllus); details: flowers treated with 5 nl/l, stored 4 days at room temperature at 4° C. before binding experiment (FIG. 4)
Protocol: Triplicate samples of 3 g cut carnations' petals were placed in a 2.51 desiccator containing ^14 C-ethylene-mercuric perchlorate complex (110 mCi/mM) in a 25 ml Erlenmeyer flask. Then, an excess of […] lithium chloride was added to the ethylene-mercuric perchlorate complex to release the gaseous ethylene. The mixture was stirred for 6 minutes. To determine the amount of binding, 3 ml of unlabelled ethylene was added in one desiccator. After 2 hours of ethylene exposure, the desiccators were opened and the samples were aerated for 4 minutes. Each sample was then placed in a 250 ml jar. 0.2 Ml of mercuric perchlorate on a 0.5 cm^2 piece of fiber-glass filter in a scintillation vial was then added. After 18 hours, the scintillation vials were removed, scintillation fluid added and the radioactivity counted for each sample.
To determine if the 1-methylcyclopropene acted on the ethylene receptor, flowers were treated with 5 nl/l of 1-methylcyclopropene and stored for 4 days at room temperature at 4° C. before the ethylene binding experiment. Carnation petals preincubated with 1-methylcyclopropene and control petals which had not been incubated with 1-methylcyclopropene were then incubated in the presence of ^14 C-ethylene. One sample representing the control was incubated with a saturating concentration of unlabelled ethylene in the presence of ^14 C-ethylene. […]

[5] = target: Bananas; assay: Banana ripening (chlorophyll disappearance); type: in vivo, bananas (Musa sapientum)
Protocol: Bananas were individually placed in a 3 l jar. 1-Methylcyclopropene was injected into the jar at a determined concentration. The plant material was then aerated and 1 ml/l of ethylene was added for 12 hours. Controls were held in jars without chemical treatment. Chlorophyll measurement was made as previously described in Sisler and Wood, 1988). The experiment was done 7 days after 1-methylcyclopropene treatment.

[6] = tested on: tomatoes; assay: Tomato ripening after ethylene treatment; type: in vivo, tomatoes (Lycopersicon esculentum); details: applied for 12 hours before the ethylene treatment
Protocol: Tomato seeds were washed with NaOCl (10%) and rinsed with water. The seeds were placed on wetted filter paper with 10 mM sodium phosphate buffer at pH 5.8. The germination was done in the dark. When the seedlings were about 1 mm height, 30 seeds by sample were placed on wet filter paper in a 0.5 l jar. 1-Methylcyclopropene was added over 24 hours before adding 10 μl/l ethylene for 5 days.
When 1-methylcyclopropene was applied for 12 hours before the ethylene treatment, only 10 nl/l of compound was enough to preserve tomatoes.

[7] = tested on: ethylene receptor; assay: Diffusion of 3H 1-methylcyclopropene from carnation petals; type: binding, carnation (Dianthus caryophyllus)
Protocol: In order to label the ethylene receptor, 1-methylcyclopropene was labelled with tritium and the specific activity obtained was 60 mCi/mM. An eventual diffusion of the compound was studied on carnations. The flowers were treated with 1-methylcyclopropene, and with large amounts of ethylene. Control flowers were treated with 1-methylcyclopropene alone. The diffusion was followed for 7 days. […] When the experiment was made at 4° C., the diffusion was nonexistent.

Structure (SMILES) | effect of ethylene on treated carnations 10 days after treatment ([1]; 5 nl/l for 6 hours, stored 10 days at room temperature, then 1 ml/l ethylene over 18 hours) | minimal concentration preventing the ethylene process, compared with that at the other ethylene levels ([1]; flowers treated with 1 ml/l of ethylene) | concentration to protect the flower against ethylene action, compared with STS, DACP or NBD ([1]; in vivo carnations) | concentration achieving total protection ([1]; old cut carnations (stage III)) [nl/l] | minimal concentration preventing the ethylene process (flowers looked like control without ethylene) ([1]; stage II carnations, 6 hours treatment before 10 or 1000 ml/l ethylene for 1 hour, after 4 days) [nl/l] | concentration needed to protect the flowers against exogenous ethylene ([1]; treated for 24 hours, against 1 ml/l of ethylene) [nl/l] | extent of protection against ethylene ([1]; young cut carnations (stage I), about 1.25 and 2.5 nl/l) | senescent process of flowers treated in a pre-senescent stage ([2]; 5 nl/l, observed 15 days later, untreated control in-rolled one day later) | concentration enough to stop the senescence process due to exogenous ethylene exposure ([2]; after exogenous ethylene exposure of at least 6 hours) [nl/l] | process of senescence after in-rolling had begun ([2]; ethylene over 6 hours, in-rolling begun, thereafter compound added) | petal in-rolling of carnations treated with ethylene and then compound ([2]; ethylene, then 1-methylcyclopropene) | ethylene production, control versus treated flowers (FIG. 3) [3] | specific 14C-ethylene binding [4] | Ki (chlorophyll measurement) ([5]; 1 ml/l ethylene for 12 hours, measured 7 days after treatment) [nl/l] | Ki for chlorophyll disappearance ([5]; experiments done in the dark) [ul/l] | Ki for chlorophyll disappearance ([5]; experiments done in the light) [ul/l] | time for which ripening was prevented ([5]; treated bananas, fruits turned brown after this period) | concentration enough to preserve tomatoes [6] [nl/l] | diffusion of the labelled compound from carnations ([7]; experiment made at 4° C.) | diffusion of the labelled compound from carnations ([7]; followed for 7 days, flowers without ethylene treatment)
CC1=CC1 [1-methylcyclopropene] | no effect | the same | much lower | 10 | 2.5 | 0.5 | total | did not show a senescent process | 3 | stopped | no visible sign of the phenomenon | considerably lower | totally inhibited | 0.4 | 40 | 1.2 | about 15 days | 10 |  | 
CC1=CC1 [^3 H 1-methylcyclopropene] |  |  |  |  |  |  |  |  |  |  |  |  |  |  |  |  |  |  | nonexistent | a little diffusion
